Reference: EP1437117A1, “Use of Sinapic acid and/or its derivatives” (Cognis France S.A., priority 2002, dated 2004)

Key:
[1] = assay type: physicochemical
Excerpt: Vorzugsweise wird jedoch die reine, nicht derivatisierte Sinapinsäure und deren Salze eingesetzt. […] Die entstehenden Abbauprodukte bilden gefärbte übelriechende Substanzen, die auch zu Hautreizungen führen können. Es ist daher ein weiterer Gegenstand der Erfindung Sinapinsäure und/oder ihre Derivate in verkapselter, komplexierter oder adsorbierter Form in den Zubereitungen einzusetzen. Dabei bietet sich insbesondere die Verkapselung in Liposomen oder einer hydrophoben Matrix, die Komplexierung in Cyclodextrinen und die Adsorption an hydrophobe Träger an. Bevorzugt wird Sinapinsäure und/oder ihre Derivate in Mikrokapseln eingearbeitet.

[2] = tested on: Carrageenan-induzierten Rattenpfotenödem-Modell; conditions: after injection into the paw; Chawla AS et al 1993; cited from earlier work
zellulärer DNA = experiment: UV-induced thymine dimer formation in cellular DNA; assay type: cell-based; conditions: induced by UV radiation; topical application
Excerpt: Es konnte festgestellt werden, dass durch die topische Anwendung von Sinapinsäure und ihren Derivaten insbesondere die Bildung von Thymin-Dimeren in zellulärer DNA, die durch UV-Strahlung induziert wird, vermindert wird. Dadurch kann die Anzahl der Mutationen gesenkt und eine Stärkung des dermalen Immunsystems bewirkt werden. Ein weiterer Gegenstand der Erfindung ist daher die Verwendung von Sinapinsäure und/oder Sinapinsäurederivaten zur Herstellung von kosmetischen und/oder dermopharmazeutischen Zubereitungen zum Schutz vor Thymin-Dimerbildung nach Einfluß von UV-Strahlung in Hautzellen und zur Verbesserung des DNA-Reparaturmechanismus in Hautzellen.

[3] = tested on: Neuropeptiden wie beispielsweise Substanz P oder CGRP; experiment: Release of neuropeptides; assay type: cell-based
Excerpt: Die Haut ist ein Gewebe, das mit einer Vielzahl von Nervenfasern durchzogen ist, deren Zellkörper in den dorsalen Ganglien (dorsal root ganglia - DRG) zusammenführen. Neurone des Typs Aδ und C erreichen mit ihren Zellen die Dermis und auch die Epidermis. Typ C Neurone sind für die Detektion von noziceptiven Stimuli verantwortlich. Keratinocyten und Nervenfasern können eine Vielzahl unterschiedlicher Cytokine produzieren, die unter dem Einfluß externer Stimuli ausgeschieden werden und die sensorischen Enden der Nervenfasern stimulieren. Diese setzen dann wiederum Peptide frei, die die metabolische Aktivität der Keratinocyten über Messenger-Moleküle beeinflussen. Auf diese Weise kommunizieren sensorische Nerven und Keratinocyten kontinuierlich miteinander. Eine Disregulation dieses physiologischen Gleichgewichts erklärt viele pathologische Erscheinungen von empfindlicher Haut oder beispielsweise Psoriasis. Es konnte nun festgestellt werden, dass Sinapinsäure und ihre Derivate insbesondere empfindliche Haut dadurch beruhigen, dass sie die Freisetzung von Neuropeptiden wie beispielsweise Substanz P oder CGRP herabsetzen.

[4] = tested on: Adenosindinukleotide (ADN) der Mitochondrien; experiment: Protection of mitochondrial genome against oxidative stress; assay type: cell-based; conditions: damage caused by oxidative stress
Excerpt: Sie vermindern die Schädigung des mitochondrialen Genoms, die durch oxidativen Stress bewirkt wird und führen dadurch zu einer Verzögerung der Alterung von Mitochondrien und zu einer Verbesserung des Energiepotentials der Zellen. Somit können Sinapinsäure und ihre Derivate über die Verbesserung der mitochondrialen Funktion und Energiebilanz zum Schutz der Haut gegen Alterung und Faltenbildung, zur Steigerung effektiver Reparaturmechanismen durch Alterung und Sonneneinstrahlung geschädigter Haut und zur verbesserten Wundheilung der Haut entscheidend beitragen.

dermaler Fibroblasten = experiment: Collagen synthesis of dermal fibroblasts; assay type: cell-based
Excerpt: Die menschliche Haut enthält vorwiegend zwei Typen von Collagen: Collagen Typ I und Collagen Typ III, synthetisiert durch dermale Fibroblasten. Beide Collagentypen stellen wesentliche Strukturkomponenten der extrazellulären Matrix des Bindegewebes dar und tragen in hohem Maße zur Struktur der gesamten Haut bei. Ein wichtiges Kennzeichen alternder Haut ist die Abnahme des Collagengehaltes in der Dermis und eine damit verbundene Abnahme der Elastizität, die zusätzlich durch eine Verschlechterung der Fibroblastenfunktion durch nicht enzymatische Glycosylierung (Glycation) und oxidativen Abbau bewirkt wird. Es wurde nun festgestellt, dass Sinapinsäure und ihre Derivate die Collagensynthese dermaler Fibroblasten stimulieren und auf diese Weise die chronologische und die UV-Strahlungsinduzierte Hautalterung verzögert werden kann. Die Verwendung von Sinapinsäure und/oder Sinapinsäurederivaten zur Herstellung kosmetischer und/oder dermopharmazeutischer Zubereitungen zur Stimulation der Collagensynthese in dermalen Fibroblasten ist daher ein weiterer Gegenstand der Erfindung.

[5] = in Ethanol; cited from earlier work

Compound: COc1cc(/C=C/C(=O)O)cc(OC)c1O [Sinapinsäure, 4-Hydroxy-3,5-Dimethoxy-Zimtsäure]
- chemische Stabilität [1]: leicht zersetzt
- anti-inflammatorische Wirkung [2]: anti-inflammatorische Wirkung
- Bildung von Thymin-Dimeren in zellulärer DNA (zellulärer DNA): vermindert
- Freisetzung von Neuropeptiden wie beispielsweise Substanz P oder CGRP [3]: herabsetzen
- Wirkung auf Adenosindinukleotide (ADN) der Mitochondrien [4]: schützende Wirkung
- Collagensynthese dermaler Fibroblasten (dermaler Fibroblasten): stimulieren
- UV-Absorptionsmaximum [5]: 323 nm
